Measured values from patent US9487508B2, “SGC stimulators” (IRONWOOD PHARMACEUTICALS, INC., priority 2012, dated 2016).

Target: T1, soluble guanylate cyclase (sGC) (Homo sapiens, UniProt Q02108+Q02153)
T1 construct: endogenously expressing soluble guanylate cyclase (sGC); endogenous in cells; host or cells: HEK293
T1 sequence (Q02153 1-619): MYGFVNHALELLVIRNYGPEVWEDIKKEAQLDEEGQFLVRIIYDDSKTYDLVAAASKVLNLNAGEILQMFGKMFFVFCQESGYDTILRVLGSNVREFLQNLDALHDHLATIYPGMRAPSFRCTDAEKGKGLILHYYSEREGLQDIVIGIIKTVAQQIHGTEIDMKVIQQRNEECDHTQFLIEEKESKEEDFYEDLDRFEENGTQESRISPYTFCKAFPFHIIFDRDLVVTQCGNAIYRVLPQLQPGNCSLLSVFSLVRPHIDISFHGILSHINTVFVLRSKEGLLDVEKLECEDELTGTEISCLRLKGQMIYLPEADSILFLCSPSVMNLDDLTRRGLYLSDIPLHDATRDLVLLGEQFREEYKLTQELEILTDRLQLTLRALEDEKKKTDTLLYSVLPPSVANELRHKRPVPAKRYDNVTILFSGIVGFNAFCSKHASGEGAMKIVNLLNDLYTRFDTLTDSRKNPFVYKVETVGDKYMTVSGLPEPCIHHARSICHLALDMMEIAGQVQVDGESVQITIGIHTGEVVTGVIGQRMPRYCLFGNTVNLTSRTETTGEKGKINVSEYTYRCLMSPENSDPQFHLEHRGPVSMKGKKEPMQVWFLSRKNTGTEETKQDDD
T1 sequence (Q02108 1-690): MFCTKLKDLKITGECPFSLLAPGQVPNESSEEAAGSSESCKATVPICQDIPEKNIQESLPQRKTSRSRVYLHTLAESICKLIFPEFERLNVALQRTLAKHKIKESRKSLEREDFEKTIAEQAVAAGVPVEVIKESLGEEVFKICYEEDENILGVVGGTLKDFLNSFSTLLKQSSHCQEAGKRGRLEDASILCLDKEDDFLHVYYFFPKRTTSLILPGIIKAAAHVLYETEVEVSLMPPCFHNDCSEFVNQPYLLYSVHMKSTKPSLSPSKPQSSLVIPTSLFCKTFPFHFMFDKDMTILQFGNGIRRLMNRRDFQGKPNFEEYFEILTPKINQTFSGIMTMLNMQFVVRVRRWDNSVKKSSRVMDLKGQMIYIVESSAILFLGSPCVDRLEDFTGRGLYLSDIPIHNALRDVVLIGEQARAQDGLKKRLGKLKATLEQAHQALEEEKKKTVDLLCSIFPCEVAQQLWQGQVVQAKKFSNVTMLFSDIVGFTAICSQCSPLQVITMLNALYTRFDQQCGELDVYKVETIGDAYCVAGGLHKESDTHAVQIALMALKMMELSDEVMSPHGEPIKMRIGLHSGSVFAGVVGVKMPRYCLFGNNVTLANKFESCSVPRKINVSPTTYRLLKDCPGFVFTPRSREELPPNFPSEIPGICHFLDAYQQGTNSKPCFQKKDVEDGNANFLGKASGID
Experiment: sGC-HEK-cGMP assay with SNP incubation (LC/MS read-out)
Type: cell-based
Conditions: 10 μM SNP
Description: (Assay Run with SNP Incubation)
Human embryonic kidney cells (HEK293), endogenously expressing soluble guanylate cyclase (sGC), were used to evaluate the activity of test compounds. Compounds stimulating the sGC receptor should cause an increase in the intracellular concentration of cGMP. HEK 293 cells were seeded in Dulbecco's Modification of Eagle's Medium supplemented with fetal bovine serum (10% final) and L-glutamine (2 mM final) in a 200 μL volume at a density of 1×10^5 cells/well in a poly-D-lysine coated 96 well flat bottom plate and grown overnight at 37° C. Medium was aspirated and cells were washed with 1× Hank's Buffered Saline Salt Solution (200 μL). Cells were then incubated for 15 minutes at 37° C. with 200 μL of a 0.5 mM 3-isobutyl-1-methylxanthine (IBMX) solution. Test article and sodium nitroprusside solutions (x μM concentration for test article solution and 10 μM concentration for SNP solution; wherein x is one of the following concentrations);
were then added to the assay mixture (2 μL each) and the resulting mixture incubated at 37° C. for 10 minutes. After the 10 minute incubation, the assay mixture was aspirated and 0.1M HCl (200 μL) was added to the cells. The plate was incubated at 4° C. for 30 minutes in the 0.1M HCl to stop the reaction and lyse the cells. The plates were then centrifuged at 1,200 g for 5 minutes at room temperature. Supernatants were collected and transferred to a new flat bottom 96 well plate for analysis by HPLC-MS. Vehicle controls were carried out using DMSO (1%) solutions. A known sGC stimulator, BAY 41-2272, was used as the positive control. Samples were diluted with an equal volume of 1 M Ammonium Acetate (pH 7) to neutralize samples for better chromatography. A 2×cGMP standard solution was prepared in 0.1 M HCl and then diluted with an equal volume of 1 M Ammonium Acetate, with the following final concentrations in nM: 1024, 512, 256, 128, 64, 32, 16, 8, 4, 2, 1. cGMP concentrations in the test plates were determined from each sample using the LC/MS conditions shown in Table 2 below and the calculated cGMP standard curve. EC50 values were calculated from concentration-response curves generated with GraphPad Prism Software.
The biological activities of some of the compounds of Formula I or Formula Ib determined with the sGC-HEK assay with SNP incubation are summarized in Tables 3A and 3B.

Emax at 10 µM (10 μM compound, 100% = BAY 41-2272 at 10 μM with 100 μM SNP, read-out: HEK assay (Percent Emax at 10 μM)): 80 to 100% | Emax at 30 µM (30 μM compound, 100% = BAY 41-2272 at 10 μM with 100 μM SNP, read-out: HEK assay (Percent Emax at 30 μM)): 80 to 100% | EC50 (top of curve fitted to 100%, read-out: HEK assay EC50-constrained): 1 to 5 µM
Structure (SMILES): Nc1ccnc(-n2cc(-c3ncco3)c(Cc3ccccc3F)n2)n1 [Compound I-2]
